# According to patent US5246830A, “Enzymatic process for the determination of β-lactam antibiotics” (Ucb Bioproducts, S.A., priority 1990, dated 1993):
# Target: T1, enzyme R39 (soluble D-alanyl-D-alanine carboxypeptidase produced by Actinomadura R39) (Actinomadura sp. R39, UniProt P39045)
# T1 construct: added to milk or serum samples
# Test: Enzymatic determination of penicillin G in milk with 0.4 picomole enzyme R39 (Example 2)
# Type: biochemical
# Conditions: for Coloration: 0.4 picomole enzyme R39, 10 min + 5 min
# Procedure: 1.5 picomole of enzyme R39, dissolved in 10 μl of 0.5M Hepes buffer (pH=8.0) containing 0.5M NaCl and 0.25M MgCl2, and 20 μl of an aqueous solution containing 50 mg/ml of D-alanine are added to each sample (control sample+samples containing penicillin G). In the blank sample, enzyme R39 dissolved in Hepes buffer is replaced by 10 μl of 0.5M Hepes buffer (pH=8.0), containing 0.5M NaCl and 0.25M MgCl2 (Hepes=4-hydroxyethyl-1-piperazineethanesulfonic acid). The mixture is incubated at 47° C. for 4 minutes.
# Next, 5 μl of an aqueous solution containing 5 mg/ml [(N-benzoyl-D-alanyl)thio]-acetic acid and 10 μl of a phosphate buffer solution (pH=8.0; KH2 PO4 +K2 HPO4) containing 2 mg/ml of 5,5'-dithiobis(2-nitrobenzoic) acid are added and the mixture is incubated at 47° C. for 1 minute.
# The process is exactly the same as in Example 1 except that:
# 0.4 picomole of enzyme R39 (instead of 1.5 picomole) is added to the samples;
# the first incubation lasts 10 minutes (instead of 4 minutes) and
# the second incubation lasts 5 minutes (instead of 1 minute).
# T1 sequence (P39045 50-515): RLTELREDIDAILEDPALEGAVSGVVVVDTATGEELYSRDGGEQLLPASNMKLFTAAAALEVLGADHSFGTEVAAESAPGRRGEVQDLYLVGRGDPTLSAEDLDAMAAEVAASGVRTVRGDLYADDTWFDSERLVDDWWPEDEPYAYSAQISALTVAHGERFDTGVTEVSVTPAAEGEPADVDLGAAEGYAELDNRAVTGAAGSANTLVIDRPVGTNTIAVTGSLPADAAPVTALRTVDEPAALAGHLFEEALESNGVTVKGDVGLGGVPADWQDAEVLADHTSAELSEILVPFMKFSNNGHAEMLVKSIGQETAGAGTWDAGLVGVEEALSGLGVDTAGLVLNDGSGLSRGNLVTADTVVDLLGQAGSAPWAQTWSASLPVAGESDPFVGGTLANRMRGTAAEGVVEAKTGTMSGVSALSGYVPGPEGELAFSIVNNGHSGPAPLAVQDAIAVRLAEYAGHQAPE
smiles,measurement,setting,value
"CC1(C)S[C@@H]2[C@H](NC(=O)Cc3ccccc3)C(=O)N2[C@H]1C(=O)O [penicillin G, benzyl penicillin (penicillin G)]",penicillin G concentration in milk detected by reference to a color chart,"color chart, 15 minutes",0.002 I.U./ml
same,Coloration,penicillin G 0.001 I.U./ml in 50 μl milk,intense yellow
same,Coloration,penicillin G 0.002 I.U./ml in 50 μl milk,medium yellow
same,Coloration,penicillin G 0.003 I.U./ml in 50 μl milk,pale yellow
same,Coloration,penicillin G 0.004 I.U./ml in 50 μl milk,white
same,Coloration,penicillin G 0.005 I.U./ml in 50 μl milk,white
same,Coloration,penicillin G 0.008 I.U./ml in 50 μl milk,white
same,Coloration,penicillin G 0.010 I.U./ml in 50 μl milk,white
